Tested on: participants with SSc-RP
Assay: Scleroderma Health Assessment Questionnaire (SHAQ), Phase 2a study Part A
Type: in vivo, human
Conditions: cilnidipine 10 mg and/or tadalafil 5 mg arms
Protocol: Part A—double-blind, placebo-controlled, parallel-group, dose selection, will assess the safety and efficacy of two doses of cilnidipine (10 mg and 20 mg), alone and in combination with tadalafil. A total of 36 participants will be randomized to one of six prespecified treatment arms. Refer to FIG. 1 for treatment arms in Part A of the study. Dosing last for 12 (±2) days in which participants will self-administer daily doses of assigned treatment in the morning. Each participant will take one capsule and one tablet to blind the active therapy being received.
The standard, validated, patient reported outcome measures tool for SSc patients, the SHAQ, will be collected at the time points specified in the study schedules (FIG. 2 and FIGS. 3A and 3B) to assess the participant's quality of life. The SHAQ includes a Raynaud's VAS that will also be reported separately.
Results: Patients in the study were administered the Scleroderma Health Assessment Questionnaire (SHAQ) at the time of study entry and during clinic visits following the treatment period. The study is a two-part, parallel arm design, prospective, double-blind, randomized study conducted in Australia (Flinders Medical Center). 27 patients were randomized into the first phase of the study, following which a DSMB meeting was held, which reviewed data on the primary study endpoint and key Raynaud's secondary endpoints. Data on the SHAQ was not available for the DSMB to review. The mITT population, in which any data was available post treatment was 24 patients was the analysis population for this first part of the study. The second part (i.e., part B) of the study will randomize 36 patients in a double blind, randomized, prospective, placebo controlled, crossover study. In the first part (i.e., Part A) of the study for which data is presented, patients were randomized into 6 groups, cilnidipine at two doses (10 and 20 mg) alone and in combination with tadalafil 5 mg, tadalafil 5 mg alone, and placebo. […] The DSMB recommended that the study proceed into its double blind prospective cross overpowered second phase and compare cilnidipine 20 mg alone to placebo.

CN1CC(=O)N2[C@H](c3ccc4c(c3)OCO4)c3[nH]c4ccccc4c3C[C@@H]2C1=O [Tadalafil, tadalafil]
SHAQ Visual Analog Scale-Intestinal Problems, Change from Baseline, Max: 1.80
SHAQ Visual Analog Scale-Intestinal Problems, Change from Baseline, Mean (SD): −0.125 (1.6800)
SHAQ Visual Analog Scale-Intestinal Problems, Change from Baseline, Median: 0.000
SHAQ Visual Analog Scale-Intestinal Problems, Change from Baseline, Min: −2.30
SHAQ Visual Analog Scale-Intestinal Problems, Change from Baseline, Q1: −1.150
SHAQ Visual Analog Scale-Intestinal Problems, Change from Baseline, Q3: 0.900
SHAQ Visual Analog Scale-Intestinal Problems, In Clinic Visit (Day 12), Max: 9.20
SHAQ Visual Analog Scale-Intestinal Problems, In Clinic Visit (Day 12), Mean (SD): 3.025 (4.3162)
SHAQ Visual Analog Scale-Intestinal Problems, In Clinic Visit (Day 12), Median: 1.450
SHAQ Visual Analog Scale-Intestinal Problems, In Clinic Visit (Day 12), Min: 0.00
SHAQ Visual Analog Scale-Intestinal Problems, In Clinic Visit (Day 12), Q1: 0.050
SHAQ Visual Analog Scale-Intestinal Problems, In Clinic Visit (Day 12), Q3: 6.000
SHAQ Visual Analog Scale-Intestinal Problems, Percent Change from Baseline, Max: 24.3%
SHAQ Visual Analog Scale-Intestinal Problems, Percent Change from Baseline, Mean (SD): −6.92 (35.225) %
SHAQ Visual Analog Scale-Intestinal Problems, Percent Change from Baseline, Median: 0.00%
SHAQ Visual Analog Scale-Intestinal Problems, Percent Change from Baseline, Min: −45.1%
SHAQ Visual Analog Scale-Intestinal Problems, Percent Change from Baseline, Q1: −45.10%
SHAQ Visual Analog Scale-Intestinal Problems, Percent Change from Baseline, Q3: 24.32%
SHAQ Visual Analog Scale-Pain, Change from Baseline, Max: 1.50
SHAQ Visual Analog Scale-Pain, Change from Baseline, Mean (SD): 1.000 (0.4359)
SHAQ Visual Analog Scale-Pain, Change from Baseline, Median: 0.800
SHAQ Visual Analog Scale-Pain, Change from Baseline, Min: 0.70
SHAQ Visual Analog Scale-Pain, Change from Baseline, Q1: 0.700
SHAQ Visual Analog Scale-Pain, Change from Baseline, Q3: 1.500
SHAQ Visual Analog Scale-Pain, In Clinic Visit (Day 12), Max: 9.20
SHAQ Visual Analog Scale-Pain, In Clinic Visit (Day 12), Mean (SD): 5.300 (4.1577)
SHAQ Visual Analog Scale-Pain, In Clinic Visit (Day 12), Median: 5.850
SHAQ Visual Analog Scale-Pain, In Clinic Visit (Day 12), Min: 0.30
SHAQ Visual Analog Scale-Pain, In Clinic Visit (Day 12), Q1: 1.900
SHAQ Visual Analog Scale-Pain, In Clinic Visit (Day 12), Q3: 8.700
SHAQ Visual Analog Scale-Pain, Percent Change from Baseline, Max: 75.0%
SHAQ Visual Analog Scale-Pain, Percent Change from Baseline, Mean (SD): 31.35 (37.825) %
SHAQ Visual Analog Scale-Pain, Percent Change from Baseline, Median: 10.81%
SHAQ Visual Analog Scale-Pain, Percent Change from Baseline, Min: 8.2%
SHAQ Visual Analog Scale-Pain, Percent Change from Baseline, Q1: 8.24%
SHAQ Visual Analog Scale-Pain, Percent Change from Baseline, Q3: 75.00%
SHAQ Visual Analog Scale-Raynaud's, Change from Baseline, Max: −0.10
SHAQ Visual Analog Scale-Raynaud's, Change from Baseline, Mean (SD): −0.825 (0.9674)
SHAQ Visual Analog Scale-Raynaud's, Change from Baseline, Median: −0.500
SHAQ Visual Analog Scale-Raynaud's, Change from Baseline, Min: −2.20
SHAQ Visual Analog Scale-Raynaud's, Change from Baseline, Q1: −1.500
SHAQ Visual Analog Scale-Raynaud's, Change from Baseline, Q3: −0.150
SHAQ Visual Analog Scale-Raynaud's, In Clinic Visit (Day 12), Max: 9.20
SHAQ Visual Analog Scale-Raynaud's, In Clinic Visit (Day 12), Mean (SD): 4.950 (3.7749)
SHAQ Visual Analog Scale-Raynaud's, In Clinic Visit (Day 12), Median: 5.200
SHAQ Visual Analog Scale-Raynaud's, In Clinic Visit (Day 12), Min: 0.20
SHAQ Visual Analog Scale-Raynaud's, In Clinic Visit (Day 12), Q1: 2.200
SHAQ Visual Analog Scale-Raynaud's, In Clinic Visit (Day 12), Q3: 7.700
SHAQ Visual Analog Scale-Raynaud's, Percent Change from Baseline, Max: −3.1%
SHAQ Visual Analog Scale-Raynaud's, Percent Change from Baseline, Mean (SD): −19.71 (16.460) %
SHAQ Visual Analog Scale-Raynaud's, Percent Change from Baseline, Median: −20.67%
SHAQ Visual Analog Scale-Raynaud's, Percent Change from Baseline, Min: −34.4%
SHAQ Visual Analog Scale-Raynaud's, Percent Change from Baseline, Q1: −33.85%
SHAQ Visual Analog Scale-Raynaud's, Percent Change from Baseline, Q3: −5.56%
SHAQ alternative disability index, Change from Baseline, Max: 0.00
SHAQ alternative disability index, Change from Baseline, Mean (SD): −0.094 (0.0625)
SHAQ alternative disability index, Change from Baseline, Median: −0.125
SHAQ alternative disability index, Change from Baseline, Min: −0.13
SHAQ alternative disability index, Change from Baseline, Q1: −0.125
SHAQ alternative disability index, Change from Baseline, Q3: −0.063
SHAQ alternative disability index, In Clinic Visit (Day 12), Max: 1.00
SHAQ alternative disability index, In Clinic Visit (Day 12), Mean (SD): 0.375 (0.4787)
SHAQ alternative disability index, In Clinic Visit (Day 12), Median: 0.250
SHAQ alternative disability index, In Clinic Visit (Day 12), Min: 0.00
SHAQ alternative disability index, In Clinic Visit (Day 12), Q1: 0.000
SHAQ alternative disability index, In Clinic Visit (Day 12), Q3: 0.750
SHAQ alternative disability index, Percent Change from Baseline, Max: −11.1%
SHAQ alternative disability index, Percent Change from Baseline, Mean (SD): −43.70 (48.956) %
SHAQ alternative disability index, Percent Change from Baseline, Median: −20.00%
SHAQ alternative disability index, Percent Change from Baseline, Min: −100.0%
SHAQ alternative disability index, Percent Change from Baseline, Q1: −100.00%
SHAQ alternative disability index, Percent Change from Baseline, Q3: −11.11%

Source: US20240148709A1, “METHODS OF TREATING EYE PAIN AND EYE DISORDERS” (Aisa Pharma, Inc., priority 2022, published 2024)
